Measurements as given in US20100305198A1, “CATIONIC LIPIDS” (THE UNIVERSITY COURT OF THE UNIVERSITY OF EDINBURG, priority 2007, published 2010).
Values belong to the compound of their own block, whether it stands above or below them.

What was measured:
[1] = tested on: B16F10 mouse melanoma cells; assay: Transfection of pEGFP-C1 into B16F10 cell line (flow cytometry); assay type: cell-based
Procedure: (§1) The corresponding cationic lipid 6a-l (1 mM in methanol) with or without DOPE (1 mM in methanol) were mixed in different proportions and the organic solvent removed by evaporation in an oven (37° C.) overnight. The resultant thin films were then hydrated with PBS. The solutions were vortexed (10-20 s) and incubated at ambient temperature for 30 min. Plasmid DNA or siRNA solution (0.04 mg/mL in PBS or another isotonic solution) was subsequently added and the solution vortexed (10-20 s). The lipoplexes were incubated at room temperature for 30 min before being used.

mouse lung = assay: In vivo transfection of luciferase-reporter plasmid (pLux) by intratracheal instillation and non-invasive luminescence imaging
Procedure: Mice were anesthetized and intubated following standard protocols. 16 μg of a luciferase-reporter plasmid (pLux, 4-6 mg/mL in PBS or another isotonic buffer) was complexed with Oleyl derivative 6i (N/P 12, 1:2 mol mixture with DOPE) following the protocol described before. Lipoplex formulation (total volume=50 μL) and naked plasmid (16 μg of plasmid in 50 μL of PBS) were then administrated into the lung by direct intratracheal instillation through peroral intubation.
Firefly luciferin (15 mg/kg) was intraperitoneally administrated to the anesthetized mice half an hour before scanning for luminescence. Mice were then imaged every 2 minutes using an IVIS SPECTRUM imaging device. FIGS. 9 and 10 show the non-invasive in vivo luminescence imaging of anesthetized mice transfected with 16 μg of a luciferase-reporter plasmid (pLux) complexed with derivative 6i (left mouse) and naked plasmid (right mouse) 72 and 120 hours after instillation respectively.

[2] = tested on: human embryonic kidney (HEK) 293T cell line; assay: Transfection of pEGFP-C1 into HEK293T cell line (flow cytometry); assay type: cell-based
Procedure: as §1

GFP-expressing mES cells = assay: Transfection of siRNA into GFP-expressing mouse stem cells (GFP knock-down, flow cytometry); assay type: cell-based; conditions: 48 h
Procedure: as §1
mES cells were grown in GMEM supplemented with 4 mM glutamine and 10% FBS in the absence of antibiotic until 80% confluence. Cells were then suspended using trypsin/EDTA and counted. 2×10^4 cells in 150 μL of GMEM-CM per well were seeded in 96-well plates and incubated overnight. The day afterwards, the different lipoplex formulations were added. […]
After incubation for two days at 37° C. and 5% CO2 (change of media after transfection was not necessary), the green fluorescent protein (GFP) reduced expression was measured by flow cytometry. For the flow cytometry analysis, cells were washed twice with PBS, detached with trypsin/EDTA, harvested with 2% FBS in PBS, centrifuged and resuspended with 2% FBS in PBS and analyzed using a BD FACSaria flow cytometer. […] In Vivo Transfection and Non-Invasive Luminescence Imaging from Living Mice

HeLa cells = assay: Transfection of pEGFP-C1 into HeLa cell line (GFP expression by flow cytometry); assay type: cell-based, Human
Procedure: as §1
Human HeLa cells were grown in RPMI supplemented with 4 mM glutamine, 10% FCS and 100 units/ml penicillin/streptomycin (RPMI-CM) until 80% confluence. Cells were then suspended using trypsin/EDTA and counted. 2×10^4 cells in 150 μL of RPMI-CM per well were seeded in 96 well plates and incubated overnight. The day afterwards, the different lipoplex formulations were added. Each experiment was performed in quadruplicate, using Effectene® Transfection Reagent (Qiagen) and Lipofectamine™ 2000 (Invitrogen) as positive control and untreated cells as negative control.
After incubation for two days at 37° C. and 5% CO2 (the change of media after transfection was not necessary), the green fluorescent protein (GFP) expression, consequence of transfecting the pEGFP-C1, was evidenced using a fluorescent microscope (Leica) and measured by flow cytometry. For the flow cytometry analysis, cells were washed twice with PBS, detached with trypsin/EDTA, harvested with 2% ferum bovine serum (FBS) in PBS, centrifuged and resuspended with 2% FBS in PBS and analyzed using a BD FACSaria flow cytometer. Transfection efficiency was measured as percentage of transfected cells and total mean fluorescence. […] The number of cells analyzed per sample was 10,000. […] Each point represents a cell. The second column of graphs represents cell number in the y-axis and fluorescence intensity in the x-axis. All the graphs have been divided into two populations of cells according with the fluorescence intensity in order to give a reference for the transfection analysis: in the untransfected cell control P1 comprises 95% of the total number of cells analyzed; when cells are transfected with compound 6f P1 comprises 19.1% of the total number of cells analyzed; within the cells transfected with Effectene® Transfection Reagent P1 comprises 35.8% of the total number of cells analyzed; when cells transfected with Lipofectamine™ 2000, P1 comprises 49.8% of the total number of cells analyzed. FITC-A Mean is the mean fluorescence (arbitrary units) calculated for each population. The mean fluorescence calculated for P2 of the cells transfected with compound 6f is 120,059, which is, by far, the best result of (A)-(D).

- Health of mice during the study (mouse lung; lipoplex instilled into the lung, followed on a daily basis): behaved healthily
Compound: CCCCCCCCC=CCCCCCCCC(=O)NC(COC(=O)CCCN)(COC(=O)CCCN)COC(=O)CCCN [Compound 6i, N-[tris-(4-aminobutiryloximethyl)methyl]-9-octadecenamide]
- % of GFP-expressing cells calculated via flow cytometry [1]: 61%
- In vivo luminescence after luciferin (mouse lung; 16 μg pLux complexed with lipid (N/P 12, 1:2 mol mixture with DOPE), intratracheal instillation, 72 and 120 hours after instillation): positive luminescence was detected
- % of GFP-expressing cells calculated via flow cytometry [2]: 54%

Compound: CCCCCCCCCCCCCCC(=O)NC(COC(=O)CCCN)(COC(=O)CCCN)COC(=O)CCCN [Compound 6f, N-[tris-(4-aminobutiryloximethyl)methyl]pentadecamide]
- % of GFP-expressing cells calculated via flow cytometry [1]: 43%
- Knock-down of GFP expression compared with Lipofectamine 2000 (GFP-expressing mES cells; GFP-expressing mES cells): better than Lipofectamine™ 2000
- Knock-down of GFP expression (GFP-expressing mES cells; GFP-transformed mouse stem cells, N/P 12, 1:2 mol mixture with DOPE, preliminary assays): 40%
- P1 population as % of the total number of cells analyzed (HeLa cells; HeLa 48 h after transfection with reporter plasmid, 10,000 cells per sample, P1 = 95% in untransfected control, 6f at N/P 12, 1:2 mol mixture with DOPE): 19.1%
- Mean fluorescence (FITC-A Mean) calculated for P2 (HeLa cells; HeLa 48 h after transfection, N/P 12, 1:2 mol mixture with DOPE): 120,059 arbitrary units
- Transfection of HeLa cells compared with the positive controls (Lip2000 and Effectene) (HeLa cells; pEGFP-C1, 48 h, N/P ratio 12, 1:2 mol mixture with DOPE): much better than the two positive controls
- % of GFP-expressing cells calculated via flow cytometry [2]: 62%

Compound: CCCCCCCCC=CCCCCCCCCOC(=O)CCC(=O)NC(COC(=O)CCCN)(COC(=O)CCCN)COC(=O)CCCN [Compound 13b, 9-octadecenyl [tris(4-aminobutanoyloxymethyl)methyl]amidosuccinate]
- Percentage of transfected (GFP-expressing, fluorescent) cells (HeLa cells; HeLa 48 hours after transfection with GFP-reporter plasmid, FIG. 6): 79%
